Data taken from publication PMC9995496, “A screen for MeCP2-TBL1 interaction inhibitors using a luminescence-based assay” (Scientific Reports, 2023).
Where a name gives a salt, the structure may show the parent alone.

tested on: PRKACA-PRKAR2A interaction (SmBiT-PRKACA / LgBiT-PRKAR2A), protein kinase A; set-up: NanoLuc complementation counter-screen in cell extract, PRKACA with PRKAR2A, loss of luminescence, detects NanoLuc interference; conditions: 0.5 h, 20 µM; inhibitor

Row | Compound | Inh (PKA)
1 | COc1ccc(N(C(=O)Oc2c(C)cccc2C)c2ccnc(Nc3ccc(N4CCN(C)CC4)cc3)n2)c(OC)c1 [UM0142819:01, WH-4-023] | 37.82%
2 | CC(C)OC(=O)[C@H](C)N[P@](=O)(CO[C@H](C)Cn1cnc2c(N)ncnc21)Oc1ccccc1 [UM0142821:01, GS-7340] | 0.4788

same assay, conditions: counter-screen for NanoLuc interference, 0.5 h, 20 µM, inhibitor, Inh (PKA)

Row | Inh (PKA) | Compound
3 | -0.1445% | N[C@@H](CC(=O)N1CCn2c(nnc2C(F)(F)F)C1)Cc1cc(F)c(F)cc1F [UM0142834:01, Sitagliptin (phosphate)]

same assay, conditions: counter-screen for NanoLuc interference; 0.5 h, 20 µM; inhibitor

Row | Compound | Inh (PKA)
4 | Cc1ccc(C(=O)OCc2ccc([C@@H](CN)C(=O)Nc3ccc4cnccc4c3)cc2)c(C)c1 [UM0142804:01, Netarsudil (AR-13324)] | 32.51%
5 | Oc1cc(CNC(=S)/C=C/c2cc(O)c(O)c(Br)c2)cc(O)c1O [UM0142805:01, NT157] | 30.97%
6 | COc1ccc(Cn2c3ncnc4c(ncn4Cc4ccc(OC)cc4)c-3nc2=O)cc1 [UM0142806:01, RK-33] | 7.723%
7 | CN(C)CCCOc1ccc(-c2ccc3ncc4c(c3c2)n(C2CCOCC2)c(=O)n4C)cn1 [UM0142808:01, AZD0156] | -0.519%
8 | O=C(O)C(O)C(O)C(=O)O (stereo not drawn) [UM0142810:01, Sodium tartrate] | 0.7692%
9 | c1c[nH]cn1 [UM0142811:01, Imidazole] | 0.004759%
10 | Nc1ccc(C(=O)O)cc1 [UM0142813:01, 4-Aminobenzoic acid] | -1.147%
11 | O[C@H]1[C@H](O)[C@@H](O)[C@H](O)[C@@H](O)[C@H]1O [UM0142814:01, myo-Inositol] | -0.9273%
12 | CCCCCCCCCCCCCC(=S)NCCCC[C@H](NC(=O)OCc1ccccc1)C(=O)Nc1ccccc1 [UM0142815:01, Thiomyristoyl] | -1.991%
13 | CC(C)(O)c1coc(S(=O)(=O)NC(=O)Nc2c3c(cc4c2CCC4)CCC3)c1 [UM0142816:01, MCC950 sodium] | -1.906%
14 | Cc1c(CN2CCN(S(C)(=O)=O)CC2)sc2c(N3CCOCC3)nc(-c3cnc(N)nc3)nc12 [UM0142817:01, GNE-477] | 0.346%

The next lines start with the values.

Row | Inh (PKA) | Compound
15 | 23.55% | CCCCNc1ncc2c(-c3ccc(CN4CCN(C)CC4)cc3)cn([C@H]3CC[C@H](O)CC3)c2n1 [UM0142820:01, UNC2025]
16 | 16.29% | CCS(=O)(=O)N1CCN(c2ccc(Nc3ncc(C(N)=O)c(NC4CC4)n3)cc2)CC1 [UM0142822:01, Cerdulatinib (PRT062070)]
17 | 8.84% | C=C(Cc1ccccc1Cl)C(=O)OCC [UM0142823:01, INF39]
18 | 18.26% | CC1=C(CSC(=S)N2CCCCC2)C(=O)c2ccccc2C1=O [UM0142824:01, PKM2 inhibitor(compound 3k)]
19 | 4.036% | N#Cc1cnc(Nc2cc(NC[C@H]3CNCCO3)c(C(F)(F)F)cn2)cn1 [UM0142825:01, CCT245737]
20 | 8.076% | NS(=O)(=O)c1nn2cc(-c3ccccc3)nc2s1 [UM0142826:01, AEG 3482]
21 | 22.08% | O=C(c1ccc(Cl)cc1)N(Cc1ccccc1)C1CCCCC1 [UM0142831:01, FPS-ZM1]
22 | 2.197% | O=C(O)C1=C(CSc2nnnn2CS(=O)(=O)O)CS[C@@H]2[C@H](NC(=O)[C@H](O)c3ccccc3)C(=O)N12 [UM0142832:01, Cefonicid (sodium salt)]
23 | 4.726% | Cc1cc(C)nc(NC(=S)N2CCN(Cc3ccc(C(F)(F)F)cc3)CC2)c1 [UM0142833:01, NCT-503]
24 | 5.197% | O=C(CCCCCCC(=O)Nc1ccc(I)cc1)NO [UM0142835:01, 4-iodo-SAHA]
25 | -0.3283% | CCCCCCCCCc1ccc(B(O)O)cc1 [UM0142836:01, 4-(n-nonyl) Benzeneboronic Acid]
26 | 0.1553% | Cc1snnc1-c1ccccc1 [UM0142838:01, 4-phenyl-5-methyl-1,2,3-Thiadiazole]
27 | 40.56% | CC(C)(C)C(O)/C(=C\c1ccc(Cl)cc1)n1cncn1 (stereo not drawn) [UM0142839:01, Uniconazole]
